{"source": "ChEMBL document CHEMBL1201862", "about": "“PubChem BioAssay data set” (2004)", "key": {"[1]": {"target": "Voltage-dependent T-type calcium channel subunit alpha-1H (Homo sapiens, UniProt O95180)", "sequence (O95180 whole entry)": "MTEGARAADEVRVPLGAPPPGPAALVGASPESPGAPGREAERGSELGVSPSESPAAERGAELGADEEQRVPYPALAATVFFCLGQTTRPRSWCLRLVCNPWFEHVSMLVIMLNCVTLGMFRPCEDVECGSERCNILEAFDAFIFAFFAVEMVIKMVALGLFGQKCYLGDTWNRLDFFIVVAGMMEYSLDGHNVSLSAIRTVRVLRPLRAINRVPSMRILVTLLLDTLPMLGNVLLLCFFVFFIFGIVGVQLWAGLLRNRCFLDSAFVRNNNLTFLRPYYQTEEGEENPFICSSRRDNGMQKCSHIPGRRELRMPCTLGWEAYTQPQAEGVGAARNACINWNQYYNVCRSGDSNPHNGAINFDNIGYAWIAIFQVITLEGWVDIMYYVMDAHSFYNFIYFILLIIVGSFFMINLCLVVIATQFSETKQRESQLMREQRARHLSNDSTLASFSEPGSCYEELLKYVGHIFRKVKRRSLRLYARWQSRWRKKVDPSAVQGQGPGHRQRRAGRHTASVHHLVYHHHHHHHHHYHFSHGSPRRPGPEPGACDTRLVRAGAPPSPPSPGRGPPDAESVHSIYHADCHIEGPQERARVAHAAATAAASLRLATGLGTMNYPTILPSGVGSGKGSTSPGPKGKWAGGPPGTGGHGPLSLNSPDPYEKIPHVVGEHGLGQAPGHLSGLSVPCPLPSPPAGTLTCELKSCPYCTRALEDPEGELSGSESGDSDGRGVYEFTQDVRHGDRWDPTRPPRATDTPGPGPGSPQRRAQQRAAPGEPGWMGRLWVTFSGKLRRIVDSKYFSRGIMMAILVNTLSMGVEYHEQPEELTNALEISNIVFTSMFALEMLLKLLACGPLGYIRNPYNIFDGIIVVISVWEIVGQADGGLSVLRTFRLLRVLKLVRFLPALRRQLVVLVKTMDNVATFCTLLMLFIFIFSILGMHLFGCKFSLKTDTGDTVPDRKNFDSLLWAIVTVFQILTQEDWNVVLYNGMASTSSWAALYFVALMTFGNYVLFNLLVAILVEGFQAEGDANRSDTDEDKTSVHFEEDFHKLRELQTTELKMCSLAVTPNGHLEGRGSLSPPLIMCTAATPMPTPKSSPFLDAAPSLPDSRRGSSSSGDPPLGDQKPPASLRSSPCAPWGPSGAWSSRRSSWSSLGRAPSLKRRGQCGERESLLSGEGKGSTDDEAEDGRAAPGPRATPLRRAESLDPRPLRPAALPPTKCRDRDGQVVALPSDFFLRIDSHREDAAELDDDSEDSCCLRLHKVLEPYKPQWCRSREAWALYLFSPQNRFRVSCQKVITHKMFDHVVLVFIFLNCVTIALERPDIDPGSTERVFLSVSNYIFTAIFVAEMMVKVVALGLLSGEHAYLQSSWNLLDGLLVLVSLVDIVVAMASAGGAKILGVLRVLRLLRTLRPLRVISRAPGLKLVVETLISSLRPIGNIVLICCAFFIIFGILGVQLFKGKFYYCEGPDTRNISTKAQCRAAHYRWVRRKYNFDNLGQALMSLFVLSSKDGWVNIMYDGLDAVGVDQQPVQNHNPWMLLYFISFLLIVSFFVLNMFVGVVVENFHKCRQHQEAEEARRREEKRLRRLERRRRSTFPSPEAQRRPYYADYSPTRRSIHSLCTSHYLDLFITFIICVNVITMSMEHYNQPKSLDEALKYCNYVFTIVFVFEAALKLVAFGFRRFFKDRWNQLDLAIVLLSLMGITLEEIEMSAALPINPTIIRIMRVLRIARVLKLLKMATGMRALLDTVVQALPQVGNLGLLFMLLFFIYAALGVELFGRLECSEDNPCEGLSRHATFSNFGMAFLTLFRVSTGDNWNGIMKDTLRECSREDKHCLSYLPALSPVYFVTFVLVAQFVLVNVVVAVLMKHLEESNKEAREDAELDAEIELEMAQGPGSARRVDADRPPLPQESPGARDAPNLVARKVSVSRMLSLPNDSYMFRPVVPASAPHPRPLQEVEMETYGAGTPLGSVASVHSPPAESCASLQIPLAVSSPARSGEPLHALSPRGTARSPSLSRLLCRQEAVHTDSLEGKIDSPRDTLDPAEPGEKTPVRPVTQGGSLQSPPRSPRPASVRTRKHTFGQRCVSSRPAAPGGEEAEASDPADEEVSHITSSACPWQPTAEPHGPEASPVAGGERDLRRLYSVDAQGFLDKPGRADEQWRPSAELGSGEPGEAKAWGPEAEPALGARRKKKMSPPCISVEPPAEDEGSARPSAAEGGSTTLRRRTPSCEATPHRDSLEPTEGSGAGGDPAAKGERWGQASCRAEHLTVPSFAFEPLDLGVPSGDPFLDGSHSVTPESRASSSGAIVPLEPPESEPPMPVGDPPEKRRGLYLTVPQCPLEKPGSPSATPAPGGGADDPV", "format": "functional"}, "[2]": {"assay": "microbe, parasite or virus in culture", "format": "functional", "conditions": "Mycobacterium tuberculosis"}, "[3]": {"assay": "growth suppression of beta-catenin-knockout colon cells, dose response, cell-based, HCT116, human colon tumor (AID 1045);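 further: cells exposed to compound for 60 hours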", "format": "functional"}, "[4]": {"assay": "growth suppression of PTEN-null colon cells, dose response, cell-based, HCT116 PTEN knockout (AID 1047);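 further: cells exposed to compound for 60 hours before readout; potency for loss of cell viability measured by luminescence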", "format": "functional"}, "[5]": {"assay": "cytotoxicity toward NIH3T3 fibroblasts, dose response, counter-screen, cell-based, ATP luminescence, mouse fibroblasts (AID 2010);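 further: cells exposed to compound for about 90 hours before reading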", "format": "functional"}, "[6]": {"assay": "inhibitors of intracellular T. cruzi replication, confirmation, NIH3T3 host cells, beta-gal luminescence (AID 2044);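 further: luminescent beta-galactosidase reporter signal from transgenic T. cruzi replicating inside host cells; inhibitors lower the luminescence signal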", "format": "functional, cell-based"}, "[7]": {"assay": "HepG2 cell cytotoxicity, dose response, cytotoxicity control for Shn3 inhibitor project, CellTiter-Glo, cherry-picked (AID 624134)", "format": "functional, cell-based"}, "[8]": {"assay": "Shn3 3'UTR reporter inhibitors, dose response, cell-based, Clone20 osteoblasts, firefly luciferase, cherry-picked (AID 624132)", "format": "functional"}, "[9]": {"assay": "control 3'UTR Renilla luciferase suppression, dose response, counter-screen for Shn3 inhibitor project, cell-based, Clone20-Shn3RL, cherry-picked (AID 624133)", "format": "functional"}, "[10]": {"target": "T1, Polyadenylate-binding protein 1 (Homo sapiens, UniProt P11940)", "T1 sequence (P11940 whole entry)": "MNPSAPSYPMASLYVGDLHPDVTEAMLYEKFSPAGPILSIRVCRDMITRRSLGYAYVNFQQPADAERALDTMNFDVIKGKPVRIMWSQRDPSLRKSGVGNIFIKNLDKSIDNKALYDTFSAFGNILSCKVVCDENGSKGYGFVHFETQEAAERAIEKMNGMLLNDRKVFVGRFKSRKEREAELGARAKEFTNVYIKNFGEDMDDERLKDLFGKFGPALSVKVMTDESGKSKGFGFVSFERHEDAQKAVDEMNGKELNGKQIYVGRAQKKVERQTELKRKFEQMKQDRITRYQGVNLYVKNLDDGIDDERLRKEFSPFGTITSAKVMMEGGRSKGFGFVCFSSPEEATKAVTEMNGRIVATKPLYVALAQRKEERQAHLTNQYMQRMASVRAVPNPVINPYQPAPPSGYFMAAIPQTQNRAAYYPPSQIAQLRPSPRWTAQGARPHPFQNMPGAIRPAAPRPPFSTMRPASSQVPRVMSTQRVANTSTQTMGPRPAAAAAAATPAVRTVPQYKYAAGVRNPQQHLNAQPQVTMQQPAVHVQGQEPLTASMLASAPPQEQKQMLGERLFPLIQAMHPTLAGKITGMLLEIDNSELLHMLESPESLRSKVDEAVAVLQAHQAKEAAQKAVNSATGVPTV", "assay": "PABP1 MLLE–PAM2 interaction inhibitors, dose response, miRNA deadenylation inhibitor project, biochemical, fluorescence polarization, Cy5-PAM2 peptide, secondary (AID 602260)", "format": "functional", "conditions": "read-out: IC50_Mean"}, "[11]": {"target": "T1, Polyadenylate-binding protein 1", "assay": "PABP1 MLLE–PAM2 binding inhibitor potency, dose response, biochemical, fluorescence polarization, FITC-PAM2 peptide (AID 602259)", "format": "functional", "conditions": "read-out: IC50_Mean"}, "Large T antigen": {"target": "Large T antigen (Simian virus 40, UniProt P03070)", "sequence (P03070 whole entry)": "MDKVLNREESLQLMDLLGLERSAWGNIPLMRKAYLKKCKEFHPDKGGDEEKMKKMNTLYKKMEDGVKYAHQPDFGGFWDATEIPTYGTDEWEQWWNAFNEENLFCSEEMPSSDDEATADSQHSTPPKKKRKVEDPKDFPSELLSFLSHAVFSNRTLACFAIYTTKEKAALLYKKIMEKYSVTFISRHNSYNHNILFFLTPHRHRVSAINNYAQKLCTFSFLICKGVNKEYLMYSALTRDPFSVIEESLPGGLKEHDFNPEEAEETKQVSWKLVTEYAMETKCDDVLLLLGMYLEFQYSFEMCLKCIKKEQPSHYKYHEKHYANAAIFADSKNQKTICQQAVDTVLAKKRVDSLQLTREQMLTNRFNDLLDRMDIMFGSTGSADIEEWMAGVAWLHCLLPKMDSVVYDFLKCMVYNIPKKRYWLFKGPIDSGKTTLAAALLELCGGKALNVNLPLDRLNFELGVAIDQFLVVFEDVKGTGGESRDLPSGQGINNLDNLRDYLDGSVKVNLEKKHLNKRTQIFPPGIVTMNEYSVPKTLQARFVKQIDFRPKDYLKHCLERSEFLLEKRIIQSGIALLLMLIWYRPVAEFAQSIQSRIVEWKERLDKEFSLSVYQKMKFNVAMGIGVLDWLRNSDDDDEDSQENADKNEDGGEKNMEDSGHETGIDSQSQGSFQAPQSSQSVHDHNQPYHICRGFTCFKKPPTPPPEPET", "format": "functional, Betapolyomavirus macacae"}, "[12]": {"target": "FAD-linked sulfhydryl oxidase ALR (Homo sapiens, UniProt P55789)", "sequence (P55789 whole entry)": "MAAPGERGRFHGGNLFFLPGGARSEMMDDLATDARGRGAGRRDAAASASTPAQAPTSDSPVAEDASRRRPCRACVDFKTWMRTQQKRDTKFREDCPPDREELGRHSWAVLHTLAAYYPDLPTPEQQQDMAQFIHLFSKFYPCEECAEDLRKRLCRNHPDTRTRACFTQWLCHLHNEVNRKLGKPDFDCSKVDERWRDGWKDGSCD", "assay": "inhibitors of human ALR sulfhydryl oxidase, dose response, biochemical, H2O2 detection, luminescence, cherry-pick (AID 493248)"}, "Protein skinhead-1": {"target": "T2, Protein skinhead-1 (Caenorhabditis elegans, UniProt P34707)", "T2 sequence (P34707 whole entry)": "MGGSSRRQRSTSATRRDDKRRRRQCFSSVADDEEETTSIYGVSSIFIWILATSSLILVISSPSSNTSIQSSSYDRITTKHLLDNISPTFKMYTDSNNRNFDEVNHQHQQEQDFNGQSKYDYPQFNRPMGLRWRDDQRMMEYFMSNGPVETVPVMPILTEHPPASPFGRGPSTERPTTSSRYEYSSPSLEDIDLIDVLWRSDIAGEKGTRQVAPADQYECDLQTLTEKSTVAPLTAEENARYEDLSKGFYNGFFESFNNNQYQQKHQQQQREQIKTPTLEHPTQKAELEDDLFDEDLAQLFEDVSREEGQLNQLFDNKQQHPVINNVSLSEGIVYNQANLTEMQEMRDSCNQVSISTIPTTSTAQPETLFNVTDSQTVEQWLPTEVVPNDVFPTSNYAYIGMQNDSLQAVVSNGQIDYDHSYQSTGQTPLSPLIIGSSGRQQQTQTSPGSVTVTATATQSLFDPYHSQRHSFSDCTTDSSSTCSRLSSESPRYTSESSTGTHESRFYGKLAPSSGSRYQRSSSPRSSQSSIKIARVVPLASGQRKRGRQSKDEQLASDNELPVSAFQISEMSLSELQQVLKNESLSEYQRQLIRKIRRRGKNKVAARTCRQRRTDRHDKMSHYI", "format": "functional"}, "[13]": {"assay": "Luminescence Cell-Based Dose Retest to Confirm Inhibitors of Cancer Stem Cells. [Related pubchem assays (depositor defined):AID2717, AID2721]", "format": "functional", "conditions": "Homo sapiens"}, "[14]": {"assay": "intracellular Trypanosoma cruzi inhibitors in host cells – cell-based, plate reader, cherry-pick samples, set 3, dose response (AID 651818);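 further: compounds incubated with infected cells for about four days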", "format": "functional"}, "[15]": {"assay": "inhibitors of clade B AD8 Env fusion, dose response, cell-based, cherry-pick (AID 652062);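 further: potency is for inhibitors of fusion seen as a drop in luminescence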", "format": "functional"}, "[16]": {"assay": "inhibitors of HIV Env-driven cell fusion, dose response, cherry-pick (AID 652057)", "format": "functional, cell-based"}}, "note": "Active and inactive are the calls of the source."}
{"molecule": "O=C1c2ccccc2C(Nc2cccc(C(F)(F)F)c2)N1Cc1ccco1", "note": "(stereo unspecified)", "values": [{"measurement": "EC50", "setting": "[1]", "value": "3.9 µM (active)"}]}
{"molecule": "O=[N+]([O-])c1ccc(C2Oc3ccccc3C3CC(c4ccccc4)=NN32)s1", "note": "(stereo unspecified)", "values": [{"measurement": "CC50", "setting": "[2]", "value": "31.5 µM (active)"}]}
{"molecule": "CCCCCCCCNC(=O)c1cccnc1SCC(=O)Nc1ccc(OC)cc1OC", "values": [{"measurement": "EC50", "setting": "[3]", "value": "12.6 µM (active)"}, {"measurement": "EC50", "setting": "[4]", "value": "12.3 µM (active)"}]}
{"molecule": "Cc1ccc(C)c(-c2nn(-c3cc(N4CCN(CCO)CC4)ccc3[N+](=O)[O-])c(=O)c3ccccc23)c1", "values": [{"measurement": "CC50", "setting": "[2]", "value": "31.4 µM (active)"}, {"measurement": "EC50", "setting": "[5]", "value": "> 60 µM (not active)"}, {"measurement": "EC50", "setting": "[6]", "value": "2.23 µM (active)"}]}
{"molecule": "COc1ccc(S(=O)(=O)N2CCOC2CNC(=O)C(=O)NCCc2c[nH]c3ccccc23)cc1C", "note": "(stereo unspecified)", "values": [{"measurement": "EC50", "setting": "[1]", "value": "3.31 µM (active)"}]}
{"molecule": "CC(C)NC(C(=O)Nc1cc(Cl)cc(Cl)c1)c1ccccc1", "note": "(stereo unspecified)", "values": [{"measurement": "EC50", "setting": "[1]", "value": "3.62 µM (active)"}]}
{"molecule": "Cc1ccc(Cl)cc1N1CCN(C(=O)C2CCC(=O)N(C3CCCCCC3)C2)CC1", "note": "(stereo unspecified)", "values": [{"measurement": "CC50", "setting": "[2]", "value": "> 40 µM (active)"}, {"measurement": "AC50", "setting": "[7]", "value": "54.8 µM (active)"}, {"measurement": "AC50", "setting": "[8]", "value": "3.14 µM (active)"}, {"measurement": "AC50", "setting": "[9]", "value": "3.41 µM (active)"}]}
{"molecule": "COc1ccccc1OCC(=O)NCCNC(=O)COc1ccccc1OC", "values": [{"measurement": "IC50", "setting": "[10]", "value": "> 66 µM (inactive)"}, {"measurement": "IC50", "setting": "[11]", "value": "> 66 µM (inactive)"}]}
{"molecule": "Oc1ccc(-c2cn3ccccc3n2)cc1", "values": [{"measurement": "IC50", "setting": "Large T antigen", "value": "> 100 µM (active)"}, {"measurement": "AC50", "setting": "[12]", "value": "0.097 µM (active)"}]}
{"molecule": "CCN(CC)S(=O)(=O)c1ccc(Cc2ncc(C(F)(F)F)cc2Cl)s1", "values": [{"measurement": "EC50", "setting": "[1]", "value": "9.84 µM (active)"}]}
{"molecule": "CC1CCN(c2ccccc2NC(=S)NC(=O)c2ccc(-c3cccc([N+](=O)[O-])c3)o2)CC1", "values": [{"measurement": "AC50", "setting": "[7]", "value": "> 70 µM (inactive)"}, {"measurement": "IC50", "setting": "[10]", "value": "> 66 µM (inactive)"}, {"measurement": "AC50", "setting": "[8]", "value": "3.07 µM (active)"}, {"measurement": "IC50", "setting": "[11]", "value": "> 66 µM (inactive)"}, {"measurement": "AC50", "setting": "[9]", "value": "3.38 µM (active)"}]}
{"molecule": "COc1ccc(NC(=O)CSc2ccccc2)cn1", "values": [{"measurement": "IC50", "setting": "[10]", "value": "33.4 µM (inactive)"}, {"measurement": "IC50", "setting": "[11]", "value": "41.7 µM (inactive)"}]}
{"molecule": "O=C(CCc1ccc(O)c(O)c1)NN=C(S)Nc1ccc(Br)cc1Cl", "values": [{"measurement": "IC50", "setting": "Large T antigen", "value": "> 100 µM (active)"}]}
{"molecule": "O=C(Nc1ccccc1-c1ccccc1)c1ccc(Br)o1", "values": [{"measurement": "EC50", "setting": "[1]", "value": "7.47 µM (active)"}]}
{"molecule": "CCN1CCN(c2cc(N3CCc4ccccc4C3)c(F)cc2[N+](=O)[O-])CC1", "values": [{"measurement": "EC50", "setting": "[3]", "value": "12 µM (active)"}, {"measurement": "EC50", "setting": "[4]", "value": "12.8 µM (active)"}]}
{"molecule": "Cc1c(C(=O)NCCC2=CCCCC2)oc2ccc(S(=O)(=O)N3CCOCC3)cc12", "values": [{"measurement": "IC50", "setting": "Protein skinhead-1", "value": "> 100 µM (inactive)"}, {"measurement": "EC50", "setting": "[3]", "value": "31.7 µM (active)"}, {"measurement": "EC50", "setting": "[4]", "value": "19.2 µM (active)"}]}
{"molecule": "O=C(COc1cccc(C(F)(F)F)c1)N1CCN(c2ccc(O)cc2)CC1", "values": [{"measurement": "AC50", "setting": "[13]", "value": "7.3 µM (active)"}, {"measurement": "IC50", "setting": "Large T antigen", "value": "9.68 µM (active)"}]}
{"molecule": "NC(=O)OCCSc1nnc(-c2cccc(C(N)=S)c2)o1", "values": [{"measurement": "IC50", "setting": "[10]", "value": "> 66 µM (inactive)"}, {"measurement": "IC50", "setting": "[11]", "value": "> 66 µM (inactive)"}]}
{"molecule": "Cc1cc(C)n(CCOC(=O)C2C(C=C(Cl)Cl)C2(C)C)n1", "note": "(stereo unspecified)", "values": [{"measurement": "EC50", "setting": "[1]", "value": "4.86 µM (active)"}]}
{"molecule": "O=C(CN1CCN(C(=O)c2ccco2)CC1)Nc1ccc(Cl)c(C(F)(F)F)c1", "values": [{"measurement": "EC50", "setting": "[1]", "value": "3.47 µM (active)"}]}
{"molecule": "C[C@@H]1CCCCO[C@@H](CN(C)Cc2ccc(Cl)c(Cl)c2)[C@@H](C)CN([C@H](C)CO)C(=O)c2cc(NC(=O)Nc3ccccc3)ccc2O1", "values": [{"measurement": "AC50", "setting": "[14]", "value": "3.82 µM (active)"}]}
{"molecule": "C[C@H]1CN([C@@H](C)CO)C(=O)Cc2cc(NC(=O)Cc3cn(C)c4ccccc34)ccc2O[C@@H]1CN(C)Cc1ccc(-c2ccccc2)cc1", "values": [{"measurement": "AC50", "setting": "[14]", "value": "1.72 µM (active)"}]}
{"molecule": "C[C@H](CO)N1C[C@H](C)[C@@H](CN(C)Cc2ccc(C(F)(F)F)cc2)Oc2c(NC(=O)NC3CCCCC3)cccc2C1=O", "values": [{"measurement": "AC50", "setting": "[14]", "value": "3.92 µM (active)"}]}
{"molecule": "C[C@H]1CN([C@@H](C)CO)C(=O)Cc2cc(NC(=O)Nc3ccc4c(c3)OCO4)ccc2O[C@@H]1CN(C)Cc1ccc(C(=O)Nc2ccccc2N)cc1", "values": [{"measurement": "AC50", "setting": "[14]", "value": "2.13 µM (active)"}]}
{"molecule": "COc1ccc(S(=O)(=O)N(C)C[C@H]2Oc3ccc(NS(=O)(=O)c4ccc(C)cc4)cc3CC(=O)N([C@H](C)CO)C[C@H]2C)cc1", "values": [{"measurement": "AC50", "setting": "[14]", "value": "3.72 µM (active)"}]}
{"molecule": "C[C@@H]1CN([C@H](C)CO)C(=O)Cc2cc(NC(=O)Nc3ccccc3)ccc2O[C@@H]1CN(C)Cc1ccc(Oc2ccccc2)cc1", "values": [{"measurement": "AC50", "setting": "[14]", "value": "3.76 µM (active)"}]}
{"molecule": "C[C@H](CO)N1C[C@H](C)[C@H](CN(C)S(=O)(=O)c2ccccc2)Oc2cc(-c3cccc(F)c3)ccc2S1(=O)=O", "values": [{"measurement": "AC50", "setting": "[15]", "value": "10.7 µM (active)"}, {"measurement": "AC50", "setting": "[16]", "value": "11 µM (active)"}]}
